Laboratory results reported in PubChem BioAssay AID256 (DTP/NCI, 2004).
Several values for one entry are separate records, joined by “and”; a condition that tells them apart may be missing. Equal entries are not always repeated. Inconclusive results and toxic doses are left out. Rule for the calls: active = survival T/C of 150% or more; inactive = T/C below 125% in these data.

Test system: CD2F1 mice, L1210 leukemia ip, survival T/C
Assay: NCI In Vivo Anticancer Drug Screen. Data for tumor model L1210 Leukemia (intraperitoneal) in CD2F1 (CDF1) mice
Conditions: higher = longer survival
Procedure, shortened: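 Implant tumor; dose compound or vehicle; measure endpoint in both groups; report treated divided by control.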

[1] = endpoint: mean survival time, dose: 100.0 mg/kg/injection, schedule: Q01DX001 (ip), vehicle: saline
[2] = endpoint: mean survival time, dose: 200.0 mg/kg/injection, schedule: Q01DX001 (ip), vehicle: saline
[3] = endpoint: mean survival time, dose: 400.0 mg/kg/injection, schedule: Q01DX001 (ip), vehicle: saline
[4] = endpoint: mean survival time, dose: 100.0 mg/kg/injection, schedule: Q04DX003 (ip), vehicle: saline with Tween-80
[5] = endpoint: mean survival time, dose: 200.0 mg/kg/injection, schedule: Q04DX003 (ip), vehicle: saline with Tween-80
[6] = endpoint: mean survival time, dose: 400.0 mg/kg/injection, schedule: Q04DX003 (ip), vehicle: saline with Tween-80
[7] = endpoint: mean survival time, dose: 25.0 mg/kg/injection, schedule: Q01DX009 (ip), vehicle: saline with Tween-80
[8] = endpoint: mean survival time, dose: 50.0 mg/kg/injection, schedule: Q01DX009 (ip), vehicle: saline with Tween-80
[9] = endpoint: mean survival time, dose: 50.0 mg/kg/injection, schedule: Q04DX003 (ip), vehicle: saline
[10] = endpoint: mean survival time, dose: 100.0 mg/kg/injection, schedule: Q04DX003 (ip), vehicle: saline
[11] = endpoint: mean survival time, dose: 100.0 mg/kg/injection, schedule: Q01DX009 (ip), vehicle: saline with Tween-80
[12] = endpoint: mean survival time, dose: 100.0 mg/kg/injection, schedule: Q01DX001 (ip), vehicle: saline with Tween-80
[13] = endpoint: mean survival time, dose: 200.0 mg/kg/injection, schedule: Q01DX009 (ip), vehicle: saline with Tween-80
[14] = endpoint: mean survival time, dose: 200.0 mg/kg/injection, schedule: Q04DX003 (ip), vehicle: saline

Measured: T/C

NN=C(c1ccccc1)c1ccccc1
inactive: endpoint: mean survival time, dose: 150.0 mg/kg/injection, schedule: Q04DX003 (ip), vehicle: Klucel (hydroxypropylcellulose) (HPC) 93 % of control | endpoint: mean survival time, dose: 225.0 mg/kg/injection, schedule: Q04DX003 (ip), vehicle: Klucel (hydroxypropylcellulose) (HPC) 95 % of control | endpoint: mean survival time, dose: 335.0 mg/kg/injection, schedule: Q04DX003 (ip), vehicle: Klucel (hydroxypropylcellulose) (HPC) 98 % of control

O=C1C(n2ccc(=O)n(C(=O)c3ccccc3)c2=O)CCN1CCO (stereo not given)
inactive: [1] 102 % of control | [2] 100 % of control | [3] 102 % of control

CNCc1c[nH]c(=O)[nH]c1=O
inactive: [4] 102 % of control | [5] 98 % of control | [6] 94 % of control

Cc1cccc(C(=O)OCCBr)c1
inactive: endpoint: mean survival time, dose: 75.0 mg/kg/injection, schedule: Q01DX009 (ip), vehicle: saline with Tween-80 102 % of control

CCSCCNC1=C(C)C(=O)C2=C(C1=O)[C@H](COC(N)=O)[C@]1(OC)[C@H]3[C@@H](CN21)N3C (stereo not given in full)
inactive: endpoint: mean survival time, dose: 1.5 mg/kg/injection, schedule: Q01DX001 (ip), vehicle: distilled water + Tween-80 103 % of control | endpoint: mean survival time, dose: 3.0 mg/kg/injection, schedule: Q01DX001 (ip), vehicle: distilled water + Tween-80 96 % of control and 103 % of control and 109 % of control | endpoint: mean survival time, dose: 6.0 mg/kg/injection, schedule: Q01DX001 (ip), vehicle: distilled water + Tween-80 104 % of control and 107 % of control and 108 % of control | endpoint: mean survival time, dose: 12.0 mg/kg/injection, schedule: Q01DX001 (ip), vehicle: distilled water + Tween-80 115 % of control and 102 % of control and 110 % of control | endpoint: mean survival time, dose: 24.0 mg/kg/injection, schedule: Q01DX001 (ip), vehicle: distilled water + Tween-80 121 % of control and 124 % of control | endpoint: mean survival time, dose: 48.0 mg/kg/injection, schedule: Q01DX001 (ip), vehicle: distilled water + Tween-80 115 % of control

Cc1cc[n+](CCc2ccccc2)cc1
inactive: [7] 112 % of control | endpoint: mean survival time, dose: 25.0 mg/kg/injection, schedule: Q04DX003 (ip), vehicle: saline 95 % of control | [8] 98 % of control | [9] 96 % of control | [10] 94 % of control

COc1ccn(C2OCCC(OC(C)=O)C2O)c(=O)n1 (stereo not given)
inactive: endpoint: median survival time, dose: 12.5 mg/kg/injection, schedule: Q01DX005 (ip), vehicle: alkali diluted with saline 107 % of control | endpoint: median survival time, dose: 25.0 mg/kg/injection, schedule: Q01DX005 (ip), vehicle: alkali diluted with saline 120 % of control | endpoint: median survival time, dose: 50.0 mg/kg/injection, schedule: Q01DX005 (ip), vehicle: alkali diluted with saline 120 % of control | endpoint: median survival time, dose: 100.0 mg/kg/injection, schedule: Q01DX005 (ip), vehicle: alkali diluted with saline 102 % of control | endpoint: median survival time, dose: 200.0 mg/kg/injection, schedule: Q01DX005 (ip), vehicle: alkali diluted with saline 109 % of control

COc1cc([C@@H]2c3cc4c(c(O)c3C[C@H]3COC(=O)[C@@H]32)OCO4)cc(OC)c1O
inactive: endpoint: mean survival time, dose: 125.0 micrograms/kg/injection, schedule: Q01DX009 (ip), vehicle: saline 102 % of control | endpoint: mean survival time, dose: 250.0 micrograms/kg/injection, schedule: Q01DX009 (ip), vehicle: saline 108 % of control | endpoint: mean survival time, dose: 500.0 micrograms/kg/injection, schedule: Q01DX009 (ip), vehicle: saline 110 % of control | endpoint: mean survival time, dose: 1000.0 micrograms/kg/injection, schedule: Q01DX009 (ip), vehicle: saline 122 % of control | endpoint: mean survival time, dose: 2000.0 micrograms/kg/injection, schedule: Q01DX009 (ip), vehicle: saline 118 % of control

NC(=O)C1C=CCC1 (stereo not given)
inactive: [7] 104 % of control | endpoint: mean survival time, dose: 25.0 mg/kg/injection, schedule: Q04DX002 (ip), vehicle: saline with Tween-80 95 % of control | [8] 101 % of control | endpoint: mean survival time, dose: 50.0 mg/kg/injection, schedule: Q04DX002 (ip), vehicle: saline with Tween-80 100 % of control | [11] 101 % of control | endpoint: mean survival time, dose: 100.0 mg/kg/injection, schedule: Q04DX002 (ip), vehicle: saline with Tween-80 91 % of control

Cc1cc(I)ccc1NC(=S)Nc1ccccc1F
inactive: [8] 93 % of control | [12] 100 % of control | [11] 90 % of control | endpoint: mean survival time, dose: 200.0 mg/kg/injection, schedule: Q01DX001 (ip), vehicle: saline with Tween-80 96 % of control | [13] 93 % of control | endpoint: mean survival time, dose: 400.0 mg/kg/injection, schedule: Q01DX001 (ip), vehicle: saline with Tween-80 96 % of control

O=[N+]([O-])c1ccc(Oc2nc(Cl)nc(Oc3ccc([N+](=O)[O-])cc3)n2)cc1
inactive: endpoint: mean survival time, dose: 25.0 mg/kg/injection, schedule: Q04DX003 (ip), vehicle: Klucel (hydroxypropylcellulose) (HPC) 93 % of control | endpoint: mean survival time, dose: 50.0 mg/kg/injection, schedule: Q04DX003 (ip), vehicle: Klucel (hydroxypropylcellulose) (HPC) 93 % of control | endpoint: mean survival time, dose: 100.0 mg/kg/injection, schedule: Q04DX003 (ip), vehicle: Klucel (hydroxypropylcellulose) (HPC) 86 % of control

CO/N=C/C1OC(n2ccc(=O)[nH]c2=O)C2OC(C)(C)OC12 (stereo not given)
inactive: endpoint: median survival time, dose: 12.5 mg/kg/injection, schedule: Q01DX005 (ip), vehicle: Klucel (hydroxypropylcellulose) (HPC) 100 % of control | endpoint: median survival time, dose: 25.0 mg/kg/injection, schedule: Q01DX005 (ip), vehicle: Klucel (hydroxypropylcellulose) (HPC) 110 % of control | endpoint: median survival time, dose: 50.0 mg/kg/injection, schedule: Q01DX005 (ip), vehicle: Klucel (hydroxypropylcellulose) (HPC) 107 % of control | endpoint: median survival time, dose: 100.0 mg/kg/injection, schedule: Q01DX005 (ip), vehicle: Klucel (hydroxypropylcellulose) (HPC) 101 % of control

CC(=O)Nc1ccc(/C=N/NC(=O)CNC(=O)NCc2ccco2)cc1
inactive: [8] 96 % of control | [11] 92 % of control | [13] 94 % of control

COc1cc(C(=O)C=O)cc(OC)c1OC
inactive: [8] 103 % of control | [4] 109 % of control | [5] 110 % of control

COc1ccc(Cc2nnc(Cc3ccc(OC)c(OC)c3)nn2)cc1OC
inactive: [4] 101 % of control | [5] 93 % of control

O=C(/C(=N\Nc1ccc([N+](=O)[O-])cc1)c1ccccc1)c1ccccc1
inactive: endpoint: mean survival time, dose: 12.5 mg/kg/injection, schedule: Q01DX009 (ip), vehicle: saline with Tween-80 96 % of control | [7] 88 % of control | [8] 88 % of control | [4] 97 % of control | [5] 97 % of control | [6] 101 % of control

CCCCNc1cc(Nc2ccc(Br)cc2)nc(N)n1
inactive: [8] 98 % of control | [11] 97 % of control | [13] 98 % of control

C=CCOCC(O)C[As](=O)(O)c1ccc(OC)cc1 (stereo not given)
inactive: endpoint: mean survival time, dose: 6.25 mg/kg/injection, schedule: Q04DX003 (ip), vehicle: saline with Tween-80 92 % of control | endpoint: mean survival time, dose: 12.5 mg/kg/injection, schedule: Q04DX003 (ip), vehicle: saline with Tween-80 101 % of control | endpoint: mean survival time, dose: 25.0 mg/kg/injection, schedule: Q04DX003 (ip), vehicle: saline with Tween-80 98 % of control

CN(C)c1ccccc1C1=CCCCC1
inactive: [9] 96 % of control | [10] 98 % of control | [14] 104 % of control

CCCCN(CCCC)C(=O)Nc1ccccc1
inactive: [1] 100 % of control | [2] 100 % of control | [3] 98 % of control

CCOC(=O)C1=C(NC(=O)Nc2cccc(C(F)(F)F)c2)SC2CCCCC12 (stereo not given)
inactive: [8] 94 % of control | [11] 91 % of control | [13] 87 % of control

O=C1c2cc(Cl)ccc2-c2c(Cl)cc(Cl)cc21
inactive: [8] 92 % of control | [11] 101 % of control | [13] 89 % of control

NNC(=O)C1CCN1C(c1ccccc1)c1ccccc1 (stereo not given)
inactive: [12] 98 % of control

COC(=O)c1[nH]nc(-c2ccc(N)cc2)c1N
inactive: endpoint: mean survival time, dose: 3.13 mg/kg/injection, schedule: Q01DX005 (ip), vehicle: other 114 % of control | endpoint: mean survival time, dose: 6.25 mg/kg/injection, schedule: Q01DX005 (ip), vehicle: other 93 % of control | endpoint: mean survival time, dose: 12.5 mg/kg/injection, schedule: Q01DX005 (ip), vehicle: other 107 % of control | endpoint: mean survival time, dose: 25.0 mg/kg/injection, schedule: Q01DX005 (ip), vehicle: other 93 % of control | endpoint: mean survival time, dose: 50.0 mg/kg/injection, schedule: Q01DX005 (ip), vehicle: other 93 % of control

O=C(Nc1ccc(Cl)c(Cl)c1)OCC#CCOC(=O)Nc1ccc(Cl)c(Cl)c1
inactive: [10] 95 % of control | [14] 95 % of control | endpoint: mean survival time, dose: 400.0 mg/kg/injection, schedule: Q04DX003 (ip), vehicle: saline 91 % of control

Nc1nc(=S)c2ncn(C3CC(O)C(CO)C3)c2[nH]1 (stereo not given)
inactive: endpoint: mean survival time, dose: 50.0 mg/kg/injection, schedule: Q01DX009 (ip), vehicle: Klucel (hydroxypropylcellulose) (HPC) 94 % of control | endpoint: mean survival time, dose: 100.0 mg/kg/injection, schedule: Q01DX009 (ip), vehicle: Klucel (hydroxypropylcellulose) (HPC) 91 % of control | endpoint: mean survival time, dose: 200.0 mg/kg/injection, schedule: Q01DX009 (ip), vehicle: Klucel (hydroxypropylcellulose) (HPC) 108 % of control

CN(Cc1cnc2nc(N)nc(N)c2n1)c1ccc(C(=O)NC(CCC(=O)O)C(=O)O)cc1Br (stereo not given)
inactive: endpoint: mean survival time, dose: 6.25 mg/kg/injection, schedule: Q01DX Z (ip), vehicle: saline 104 % of control
